From paper PMC6542793, “The identification of small molecule inhibitors of the plant inositol phosphorylceramide synthase which demonstrate herbicidal activity” (Scientific Reports, 2019)
Values joined by “and” are separate entries in the source; they are usually repeats but may differ in a detail not shown here. Equal values may be shown once. “Also recorded” adds a separate entry of the source. Starred links: 1 amine or outer side, 2 acyl side, 3 side chain; linkers in the order of their positions; H or OH if unused. Non-standard residues stand in square brackets, D forms with d. Residues, ends and D or L forms follow the SMILES beside them. X1 = CC[C@@H](C)[C@@H](O[*:1])C(=O)[*:2]; NMeVal(β-OH) = CN[C@H](C(=O)O)C(C)(C)O; NMeF = CN[C@@H](Cc1ccccc1)C(=O)O; aIle = CC[C@@H](C)[C@H](N)C(=O)O; NMeV = CN[C@H](C(=O)O)C(C)C

What was measured:
fungal IPCS = system: fungal IPCS; design: method as in PMID 8593016, PMID 9405490, PMID 9614099, PMID 17420565, PMID 19644519; details: inhibitors of the fungal IPCS; cited from earlier work
Aur1p [1] = target: T1, Aur1p (Saccharomyces cerevisiae, UniProt P36107); experiment: HPTLC in vitro IPCS assay of microsomal extracts, NBD-IPC production (Aur1p); type: biochemical; details: presence vs absence of AbA
T1 construct: The complete open reading frames of AtIPCS2 and AUR1p were amplified from cDNA or GenEZ ORF Clones; made in house; microsomal membranes
T1 sequence (P36107 1-401): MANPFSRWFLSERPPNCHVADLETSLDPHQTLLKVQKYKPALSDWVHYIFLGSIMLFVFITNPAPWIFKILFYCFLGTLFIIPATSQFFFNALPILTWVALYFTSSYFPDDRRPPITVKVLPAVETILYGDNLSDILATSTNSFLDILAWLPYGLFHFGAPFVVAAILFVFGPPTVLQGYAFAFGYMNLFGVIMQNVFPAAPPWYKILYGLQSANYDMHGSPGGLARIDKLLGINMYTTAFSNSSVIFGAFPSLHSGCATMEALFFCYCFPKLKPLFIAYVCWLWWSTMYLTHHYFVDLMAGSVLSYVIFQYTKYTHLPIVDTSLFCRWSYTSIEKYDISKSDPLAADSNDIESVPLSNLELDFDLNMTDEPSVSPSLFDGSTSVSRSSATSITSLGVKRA
T1 sequence (Q06346 1-221 partner): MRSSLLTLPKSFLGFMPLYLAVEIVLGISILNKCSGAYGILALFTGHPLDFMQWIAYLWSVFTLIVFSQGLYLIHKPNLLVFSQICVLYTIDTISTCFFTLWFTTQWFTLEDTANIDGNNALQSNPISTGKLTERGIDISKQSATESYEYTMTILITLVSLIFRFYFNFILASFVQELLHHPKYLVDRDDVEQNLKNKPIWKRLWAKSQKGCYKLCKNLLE
Method: Microsomal material was prepared from MSY23-3C pESC-LEU_AtIPCS2 and MSY23-3C pESC-LEU_AUR1 as previously described[33]. IPCS turnover was assayed using HPTLC (Merck) and imaged using a Fuji FLA−3000 reader and AIDA Image Analyser® software (version 3.52) as previously described[17].

AtIPCS2 [2] = target: T2, AtIPCS2 (Arabidopsis thaliana, UniProt Q9SH93); experiment: HPTLC in vitro IPCS assay of microsomal extracts, NBD-IPC production (AtIPCS2); type: biochemical; details: presence vs absence of AbA
T2 construct: The complete open reading frames of AtIPCS2 and AUR1p were amplified from cDNA or GenEZ ORF Clones; made in house; microsomal membranes
T2 sequence (Q9SH93 1-305): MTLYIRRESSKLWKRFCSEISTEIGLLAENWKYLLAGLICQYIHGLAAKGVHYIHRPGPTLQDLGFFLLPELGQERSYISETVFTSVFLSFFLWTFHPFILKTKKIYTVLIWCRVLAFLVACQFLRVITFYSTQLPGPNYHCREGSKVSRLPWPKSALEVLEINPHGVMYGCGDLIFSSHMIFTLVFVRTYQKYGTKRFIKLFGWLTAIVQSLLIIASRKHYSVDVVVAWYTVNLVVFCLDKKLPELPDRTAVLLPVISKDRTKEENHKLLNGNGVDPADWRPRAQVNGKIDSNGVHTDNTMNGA
Method: In the quadruple pdr1∆ pdr3∆ pdr16∆ pdr17∆ strain, AUR1 was deleted and replaced by a HIS3 selectable marker, with growth supported by expression of the essential AUR1 gene from the plasmid pRS316-AUR1 under uracil selection. […] (Fig. 2).
Figure 2 HPTLC separation of in vitro assayed Aur1p and AtIPCS2 showing the production of NBD-IPC in the presence (+) and absence (−) of AbA. […] NBD-Cer is the substrate, NBD-C6-phytoceramide.
Microsomal material was prepared from MSY23-3C pESC-LEU_AtIPCS2 and MSY23-3C pESC-LEU_AUR1 as previously described. IPCS turnover was assayed using HPTLC (Merck) and imaged using a Fuji FLA−3000 reader and AIDA Image Analyser® software (version 3.52) as previously described. Subsequently, a 96-well plate assay was formatted based on the protocol described by Mina et al.[17]. […] Following incubation for 60 minutes (or 40 minutes for MSY23-3C pESC-LEU_AUR1 membranes) at 30 °C the reaction was quenched by the addition of 200 µl methanol per well, the reaction product separated using exchange chromatography in 96-well filter plates (Millipore)[17] and the fluorescence measured at Ex460/Em540 using a fluorescence Microplate Reader (Biotek Synergy H4 with Gen5™). […]

Aur1p [3] = target: T1, Aur1p; experiment: Secondary screening, 96-well plate microsomal in vitro IPCS enzyme assay (Aur1p control); type: biochemical
Method: (§1) In the secondary screening stage the previously described microsomal-based in vitro IPCS assay was adapted and utilised. Initially, all 106 selective hits from the primary screen were tested, in duplicate, at 10 µM.
(§2) Microsomal material was prepared from MSY23-3C pESC-LEU_AtIPCS2 and MSY23-3C pESC-LEU_AUR1 as previously described. IPCS turnover was assayed using HPTLC (Merck) and imaged using a Fuji FLA−3000 reader and AIDA Image Analyser® software (version 3.52) as previously described. Subsequently, a 96-well plate assay was formatted based on the protocol described by Mina et al.[17]. Following optimisation of substrate concentration and incubation time, each compound at the desired concentration (100 µM to 46 nM; in triplicate), was incubated in 96-well plates (Corning® Costar®) in phosphate buffer (71.4 mM, pH 7.0) with soybean PI (100 µM, final concentration, Avanti), NBD-C6-phytoceramide (15 µM; ThermoFisher) and microsomal membranes (0.3–0.4 Units[17]). Following incubation for 60 minutes (or 40 minutes for MSY23-3C pESC-LEU_AUR1 membranes) at 30 °C the reaction was quenched by the addition of 200 µl methanol per well, the reaction product separated using exchange chromatography in 96-well filter plates (Millipore)[17] and the fluorescence measured at Ex460/Em540 using a fluorescence Microplate Reader (Biotek Synergy H4 with Gen5™). […]

Arabidopsis seedlings = experiment: In vivo screening, Arabidopsis seedlings grown on agar; design: species or system A. thaliana (Col0)
Method: In vivo testing of the phenylamidine Compound 1 was undertaken against Arabidopsis seedlings grown on agar.
A. thaliana (Col0) seedlings were grown for 10 days on 0.8% Murashige and Skoog (MS) agar and then transferred to 1.2% MS agar containing compounds at the desired concentrations or DMSO as a control. Plants were grown at 20 °C under 16 hour day/8 hour night photoperiod.

AtIPCS2 [4] = target: T2, AtIPCS2; experiment: Secondary screening, 96-well plate microsomal in vitro IPCS enzyme assay (AtIPCS2); type: biochemical; details: AtIPCS2 IC50 (95% CI), microsomal membranes, dose response 100 µM to 46 nM, triplicate
Method: as §1, §2

CCCCCCCCCC[C@H](C)[C@@H](O)[C@@H](C)/C=C(C)/C=C(\C)C(=O)[C@H](C)/C=C(\C)C(=O)O[C@H](CO)[C@@H](O)[C@H](O)C(=O)O [khafrefungin]
IC50 against Saccharomyces cerevisiae (fungal IPCS): low nano-molar

pleofungin
IC50 against Saccharomyces cerevisiae (fungal IPCS): low nano-molar

rustimicin
IC50 against Saccharomyces cerevisiae (fungal IPCS): low nano-molar

CC[C@@H](C)[C@@H]1NC(=O)[C@@H]2CCCN2C(=O)[C@H](Cc2ccccc2)N(C)C(=O)[C@H](Cc2ccccc2)NC(=O)[C@H](C(C)C)N(C)C(=O)[C@@H]([C@H](C)CC)OC(=O)[C@H](C(C)(C)O)N(C)C(=O)[C@H](CC(C)C)NC(=O)[C@H](C(C)C)N(C)C1=O [aureobasidin A] (cyclo(F[NMeF]P[aIle][NMeV]L[NMeVal(β-OH)][X1][NMeV]))
sensitivity of Aur1p activity (NBD-IPC production) to the compound (Aur1p [1]): Only the fungal enzyme Aur1p is sensitive | sensitivity of AtIPCS2 activity (NBD-IPC production) to the compound (AtIPCS2 [2]): insensitive | IC50 against Saccharomyces cerevisiae (fungal IPCS): low nano-molar

Cc1cc(Oc2ccc(C#N)c(CC(C)(C)C)c2)c(C)cc1N=CN1CCCCC1 [Compound 1]
IC50 (Aur1p [3]): > 50 µM | phenotype of treated seedlings (Arabidopsis seedlings; 7 day old seedlings on agar containing 10 and 40 µM, compared to DMSO control): clear purple patches associated with anthocyanin biosynthesis in response to stress[47], and an absence of lateral root development | effects on wild type Col-0 Arabidopsis seedlings, in words (Arabidopsis seedlings; in vivo screening, dose response): dose dependent effects with decreased lateral root development, and distinctive purple leaf patches; also recorded: induce the plant stress response | concentration at which treatment restricted growth and led to purple leaf patches (Arabidopsis seedlings; tested at 3.7, 11, 33 and 100 µM, compared to DMSO control): ≥ 11 µM | IC50 (AtIPCS2 [4]): 4.02 µM and < 5 µM

haplofungin
IC50 against Saccharomyces cerevisiae (fungal IPCS): low nano-molar
